# Data: paper PMC6321168, “Comparative Study on Excretive Characterization of Main Components in Herb Pair Notoginseng-Safflower and Single Herbs by LC–MS/MS” (Pharmaceutics, 2018)
# Assay: Urinary excretion study in rats after oral NS, SF or CNS (LC–MS/MS)
# Type: in vivo
# Conditions: for concentration at 2 h / concentration at 4 h / concentration at 8 h / concentration at 12 h / concentration at 24 h / concentration at 36 h / concentration at 48 h / concentration at 72 h / concentration at 96 h / concentration at 120 h / concentration at 6 h: male, Sprague Dawley, rat, urine, oral; for Accumulative excretion amount / Accumulative excretion percentage / Excretion amount: rat urine
# Description: The animal room was set at constant temperature of 20 ± 2 °C with humidity of 50 ± 20% and 12/12 h light/dark cycle.
# Eighteen male rats were fasted for 12 h before starting the experiment. The rats were divided into three groups at random (n = 6) and received NS (60 mg/kg), SF (50 mg/kg), and NS (60 mg/kg) + SF (50 mg/kg), respectively, by oral gavage. The rats were placed in separate metabolic cages. The urine samples were collected at 0–2, 2–4, 4–6, 6–8, 8–12, 12–24, 24–36, 36–48, 48–72, 72–96, and 96–120 h. The feces samples were collected at 0–4, 4–8, 8–12, 12–24, 24–36, 36–48, 48–72, 72–96, and 96–120 h. The urine volume was recorded and the dry feces were measured for each collection period. Samples were stored at −80 °C until analysis.
# An aliquot of 200 μL urine sample was mixed with 10 μL of IS and evaporated to dryness with a ZLS-2 vacuum centrifugal concentrator (Herexi Co., Ltd., Changsha, Hunan, China). The residue was reconstituted in 100 μL of 50% methanol vortexed for 2 min and centrifuged at 12,000 rpm for 15 min. Finally, a 1 μL aliquot was injected for LC–MS analysis.
# Ultra fast liquid chromatography (UFLC) analysis was performed using a Shimadzu UFLC system (DGU-20A3R Degasser; LC-20AD pump; SIL-20AXR Autosampler; CTO-20AC Column Oven) (Nakagyo-Ku, Koyoto, Japan). […] Because of the different endogenous substances in the urine and feces samples, different elution gradients were used to alleviate the matrix effects for the analytes.
# The mass spectrometric detection was performed on an ABSciex 4500 Qtrap mass spectrometer (ABSciex, Foster City, CA, USA) equipped with a negative electrospray ionization (ESI) interface using multiple reaction monitoring (MRM). The MS parameters were optimized under the selected ion monitoring conditions as follows: curtain gas, 35 psi; ionspray voltage, 4500 V; turbo gas temperature, 450 °C; GS1, 45 psi; GS2, 45 psi. All data were acquired and analyzed by Analyst software (Versions 1.6.2) from ABSciex.
# The accumulative excretion percentage was calculated for each analyte as follows. Excretion at time (t) = [concentration of the analyte (ng/mL) at t] × total urine (or feces) volume (mL) at t. The cumulative excretion up to time t (mg) was expressed as a percent (%) cumulative excretion by dividing by the total amount of the analyte ingested (mg): % Cumulative Excretion = 100 × (Σt excretiont) total ingested.
structure (smiles),measurement,setting,value
CC(C)=CCC[C@](C)(O[C@@H]1O[C@H](CO)[C@@H](O)[C@H](O)[C@H]1O)[C@H]1CC[C@]2(C)[C@@H]1[C@H](O)C[C@@H]1[C@@]3(C)CC[C@H](O)C(C)(C)[C@@H]3[C@@H](O[C@@H]3O[C@H](CO)[C@@H](O)[C@H](O)[C@H]3O[C@@H]3O[C@@H](C)[C@H](O)[C@@H](O)[C@H]3O)C[C@]12C [ginsenoside Re],concentration at 2 h,"60 mg/kg, oral NS 60 mg/kg, 2 h",289 ± 689 ng/mL
same,concentration at 4 h,"60 mg/kg, oral NS 60 mg/kg, 4 h",91 ± 119 ng/mL
same,concentration at 8 h,"60 mg/kg, oral NS 60 mg/kg, 8 h",40 ± 26 ng/mL
same,concentration at 12 h,"60 mg/kg, oral NS 60 mg/kg, 12 h",33 ± 24 ng/mL
same,concentration at 24 h,"60 mg/kg, oral NS 60 mg/kg, 24 h",17 ± 34 ng/mL
same,concentration at 36 h,"60 mg/kg, oral NS 60 mg/kg, 36 h",15 ± 23 ng/mL
same,concentration at 48 h,"60 mg/kg, oral NS 60 mg/kg, 48 h",13 ± 24 ng/mL
same,concentration at 72 h,"60 mg/kg, oral NS 60 mg/kg, 72 h",17 ± 37 ng/mL
same,concentration at 96 h,"60 mg/kg, oral NS 60 mg/kg, 96 h",7 ± 13 ng/mL
same,concentration at 120 h,"60 mg/kg, oral NS 60 mg/kg, 120 h",4 ± 8 ng/mL
same,concentration at 2 h,"oral CNS 110 mg/kg, 2 h",86 ± 88 ng/mL
same,concentration at 4 h,"oral CNS 110 mg/kg, 4 h",70 ± 89 ng/mL
same,concentration at 6 h,"oral CNS 110 mg/kg, 6 h",39 ± 27 ng/mL
same,concentration at 8 h,"oral CNS 110 mg/kg, 8 h",41 ± 35 ng/mL
same,concentration at 12 h,"oral CNS 110 mg/kg, 12 h",35 ± 41 ng/mL
same,concentration at 24 h,"oral CNS 110 mg/kg, 24 h",369 ± 963 ng/mL
same,concentration at 36 h,"oral CNS 110 mg/kg, 36 h",24 ± 38 ng/mL
same,concentration at 48 h,"oral CNS 110 mg/kg, 48 h",6 ± 7 ng/mL
same,concentration at 72 h,"oral CNS 110 mg/kg, 72 h",5 ± 7 ng/mL
same,concentration at 96 h,"oral CNS 110 mg/kg, 96 h",3 ± 5 ng/mL
same,concentration at 120 h,"oral CNS 110 mg/kg, 120 h",4 ± 8 ng/mL
same,concentration at 6 h,"oral NS 60 mg/kg, 6 h",32 ± 30 ng/mL
same,Accumulative excretion amount,"oral CNS 110 mg/kg, 2 h",0.133 ± 0.062 µg
same,Accumulative excretion percentage,"oral CNS 110 mg/kg, 2 h",0.028±0.013%
same,Accumulative excretion amount,"oral CNS 110 mg/kg, 4 h",0.193 ± 0.131 µg
same,Accumulative excretion percentage,"oral CNS 110 mg/kg, 4 h",0.041±0.028%
same,Excretion amount,"oral CNS 110 mg/kg, 4 h",0.100 ± 0.090 µg
same,Accumulative excretion amount,"oral CNS 110 mg/kg, 6 h",0.231 ± 0.118 µg
same,Accumulative excretion percentage,"oral CNS 110 mg/kg, 6 h",0.049± 0.025%
same,Excretion amount,"oral CNS 110 mg/kg, 6 h",0.064 ± 0.030 µg
same,Accumulative excretion amount,"oral CNS 110 mg/kg, 8 h",0.289 ± 0.121 µg
same,Accumulative excretion percentage,"oral CNS 110 mg/kg, 8 h",0.061±0.026%
same,Excretion amount,"oral CNS 110 mg/kg, 8 h",0.072 ± 0.033 µg
same,Accumulative excretion amount,"oral CNS 110 mg/kg, 12 h",0.324 ± 0.110 µg
same,Accumulative excretion percentage,"oral CNS 110 mg/kg, 12 h",0.069±0.023%
same,Excretion amount,"oral CNS 110 mg/kg, 12 h",0.035 ± 0.015 µg
same,Accumulative excretion amount,"oral CNS 110 mg/kg, 24 h",0.381 ± 0.153 µg
same,Accumulative excretion percentage,"oral CNS 110 mg/kg, 24 h",0.081±0.032%
same,Excretion amount,"oral CNS 110 mg/kg, 24 h",0.058 ± 0.054 µg
same,Accumulative excretion amount,"oral CNS 110 mg/kg, 36 h",0.411 ± 0.177 µg
same,Accumulative excretion percentage,"oral CNS 110 mg/kg, 36 h",0.087±0.037%
same,Excretion amount,"oral CNS 110 mg/kg, 36 h",0.030 ± 0.037 µg
same,Accumulative excretion amount,"oral CNS 110 mg/kg, 48 h",0.447 ± 0.206 µg
same,Accumulative excretion percentage,"oral CNS 110 mg/kg, 48 h",0.095±0.044%
same,Excretion amount,"oral CNS 110 mg/kg, 48 h",0.03 ± 0.038 µg
same,Accumulative excretion amount,"oral CNS 110 mg/kg, 72 h",0.460 ± 0.207 µg
same,Accumulative excretion percentage,"oral CNS 110 mg/kg, 72 h",0.097±0.044%
same,Excretion amount,"oral CNS 110 mg/kg, 72 h",0.013 ± 0.017 µg
same,Accumulative excretion amount,"oral CNS 110 mg/kg, 96 h",0.468 ± 0.217 µg
same,Accumulative excretion percentage,"oral CNS 110 mg/kg, 96 h",0.099±0.046%
same,Excretion amount,"oral CNS 110 mg/kg, 96 h",0.008 ± 0.012 µg
same,Accumulative excretion amount,"oral CNS 110 mg/kg, 120 h",0.472 ± 0.219 µg
same,Accumulative excretion percentage,"oral CNS 110 mg/kg, 120 h",0.100±0.046%
same,Excretion amount,"oral CNS 110 mg/kg, 120 h",0.004 ± 0.005 µg
same,Accumulative excretion amount,"oral NS 60 mg/kg, 2 h",0.304 ± 0.161 µg
same,Accumulative excretion percentage,"oral NS 60 mg/kg, 2 h",0.064±0.030%
same,Excretion amount,"oral NS 60 mg/kg, 2 h",0.304 ± 0.161 µg
same,Accumulative excretion amount,"oral NS 60 mg/kg, 4 h",0.390 ± 0.199 µg
same,Accumulative excretion percentage,"oral NS 60 mg/kg, 4 h",0.072±0.037%
same,Excretion amount,"oral NS 60 mg/kg, 4 h",0.129 ± 0.051 µg
same,Accumulative excretion amount,"oral NS 60 mg/kg, 6 h",0.509 ± 0.225 µg
same,Accumulative excretion percentage,"oral NS 60 mg/kg, 6 h",0.096±0.042%
same,Excretion amount,"oral NS 60 mg/kg, 6 h",0.143 ± 0.125 µg
same,Accumulative excretion amount,"oral NS 60 mg/kg, 8 h",0.625 ± 0.321 µg
same,Accumulative excretion percentage,"oral NS 60 mg/kg, 8 h",0.127±0.059%
same,Excretion amount,"oral NS 60 mg/kg, 8 h",0.173 ± 0.121 µg
same,Accumulative excretion amount,"oral NS 60 mg/kg, 12 h",0.721 ± 0.406 µg
same,Accumulative excretion percentage,"oral NS 60 mg/kg, 12 h",0.138±0.075%
same,Excretion amount,"oral NS 60 mg/kg, 12 h",0.096 ± 0.087 µg
same,Accumulative excretion amount,"oral NS 60 mg/kg, 24 h",0.745 ± 0.403 µg
same,Accumulative excretion percentage,"oral NS 60 mg/kg, 24 h",0.149±0.074%
same,Excretion amount,"oral NS 60 mg/kg, 24 h",0.024 ± 0.015 µg
same,Accumulative excretion amount,"oral NS 60 mg/kg, 36 h",0.782 ± 0.377 µg
same,Accumulative excretion percentage,"oral NS 60 mg/kg, 36 h",0.141±0.070%
same,Excretion amount,"oral NS 60 mg/kg, 36 h",0.044 ± 0.046 µg
same,Accumulative excretion amount,"oral NS 60 mg/kg, 48 h",0.802 ± 0.380 µg
same,Accumulative excretion percentage,"oral NS 60 mg/kg, 48 h",0.152±0.070%
same,Excretion amount,"oral NS 60 mg/kg, 48 h",0.020 ± 0.022 µg
same,Accumulative excretion amount,"oral NS 60 mg/kg, 72 h",0.809 ± 0.391 µg
same,Accumulative excretion percentage,"oral NS 60 mg/kg, 72 h",0.156±0.072%
same,Excretion amount,"oral NS 60 mg/kg, 72 h",0.007 ± 0.017 µg
same,Accumulative excretion amount,"oral NS 60 mg/kg, 96 h",0.814 ± 0.399 µg
same,Accumulative excretion percentage,"oral NS 60 mg/kg, 96 h",0.154±0.074%
same,Excretion amount,"oral NS 60 mg/kg, 96 h",0.005 ± 0.010 µg
same,Accumulative excretion amount,"oral NS 60 mg/kg, 120 h",0.819 ± 0.408 µg
same,Accumulative excretion percentage,"oral NS 60 mg/kg, 120 h",0.154±0.075%
same,Excretion amount,"oral NS 60 mg/kg, 120 h",0.004 ± 0.010 µg
